According to US6605628B1, “Method of using 5-(arysulfonyl)-, 5-(arylsulfanyl)-and 5-(arylsulfanyl)thiazolidine-2,4-diones for inhibition of farnesyl-protein transferase” (Wyeth Holdings Corporation, priority 2001, dated 2003):

Key:
FPTase [1] = target: T1, FPTase (Homo sapiens, UniProt P49354+P49356); assay: in vitro FTase Inhibition Assay, H-Ras used as substrate for farnesylation; type: biochemical; conditions: Table I, read-out: IC50 H-Ras*
FPTase [2] = target: T1, FPTase; assay: in vitro FTase Inhibition Assay, K-Ras used as substrate for farnesylation; type: biochemical; conditions: Table I

In the case of COc1ccc(S(=O)(=O)C2(CCCC#Cc3ccccc3Cl)SC(=O)NC2=O)cc1 (stereo not drawn) [Example 101, 5-[5-(2-Chlorophenyl)pent-4-ynyl]-5-(4-methoxybenzenesulfonyl)thiazolidine-2,4-dione], the IC50 (FPTase [1]) is reported as 10 to 30 nM, the IC50 (FPTase [2]) is reported as 110 to 1000 nM and the melting point is reported as 133 to 135 °C.
COc1ccc(S(=O)(=O)C2(CCCC#Cc3cccc(Cl)c3)SC(=O)NC2=O)cc1 (stereo not drawn) [Example 102, 5-[5-(3-Chlorophenyl)pent-4-ynyl]-5-(4-methoxybenzenesulfonyl)thiazolidine-2,4-dione] gave an IC50 (FPTase [1]) of 30 to 32 nM, an IC50 (FPTase [2]) of 1400 nM and a melting point of 134 to 136 °C.
Work on Cc1ccc(S(=O)(=O)C2(CCCC#Cc3ccc(Cl)cc3)SC(=O)NC2=O)cc1 (stereo not drawn) [Example 103, 5-[5-(4-Chlorophenyl)pent-4-ynyl]-5-(p-tolylsulfonyl)thiazolidine-2,4-dione] yielded an IC50 (FPTase [1]) of 30 to 50 nM, an IC50 (FPTase [2]) of 900 to 10000 nM and a melting point of 176 to 177 °C.
Work on O=C1NC(=O)C(CCCC#Cc2ccc(Cl)cc2)(S(=O)(=O)c2ccc(I)cc2)S1 (stereo not drawn) [Example 104, 5-[5-(4-Chlorophenyl)pent-4-ynyl]-5-(4-iodobenzenesulfonyl)thiazolidine-2,4-dione] yielded an IC50 (FPTase [1]) of 30 to 54 nM, an IC50 (FPTase [2]) of 230 to 900 nM and a melting point of 157 to 159 °C.
For O=C1NC(=O)C(CCCC#Cc2ccc(Cl)cc2)(S(=O)(=O)c2ccc(Oc3ccccc3)cc2)S1 (stereo not drawn) [Example 106, 5-[5-(4-Chlorophenyl)pent-4-ynyl]-5-(4-phenoxybenzenesulfonyl)-thiazolidine-2,4-dione], the IC50 (FPTase [1]) was 230 to 250 nM, the IC50 (FPTase [2]) was 1300 to 1700 nM and the melting point was 193 to 194 °C.
With O=C1NC(=O)C(CCCC#Cc2ccc(Cl)cc2)(S(=O)(=O)c2ccc3ccccc3c2)S1 (stereo not drawn) [Example 107, 5-[5-(4-Chlorophenyl)pent-4-ynyl]-5-(naphthalene-2-sulfonyl)thiazolidine-2,4-dione] the IC50 (FPTase [1]) was 180 to 200 nM, the IC50 (FPTase [2]) was 620 to 700 nM and the melting point was 150 to 153 °C.
For CC(=O)Nc1ccc(S(=O)(=O)C2(CCCC#Cc3ccc(Cl)cc3)SC(=O)NC2=O)cc1 (stereo not drawn) [Example 108, N-(4-{5-[5-(4-Chlorophenyl)pent-4-ynyl]-2,4-dioxothiazolidine-5-sulfonyl}phenyl)acetamide], the IC50 (FPTase [1]) was 130 to 180 nM, the IC50 (FPTase [2]) was no less than 9000 nM and the melting point was 232 °C (dec.).
O=C1NC(=O)C(CCCC#Cc2ccc(Cl)cc2)(S(=O)(=O)c2ccc(OCc3ccccc3)cc2)S1 (stereo not drawn) [Example 111, 5-(4-Benzyloxybenzenesulfonyl)-5-[5-(4-chlorophenyl)pent-4-ynyl]-thiazolidine-2,4-dione] gave an IC50 (FPTase [1]) of 110 to 150 nM, an IC50 (FPTase [2]) of 300 to 550 nM and a melting point of 181 to 184 °C.
With CCCCOc1ccc(S(=O)(=O)C2(CCCC#Cc3ccc(Cl)cc3)SC(=O)NC2=O)cc1 (stereo not drawn) [Example 112, 5-(4-Butoxybenzenesulfonyl)-5-[5-(4-chlorophenyl)-pent-4-ynyl]-thiazolidine-2,4-dione] the IC50 (FPTase [1]) was 590 to 600 nM, the IC50 (FPTase [2]) was 1400 to 1500 nM and the melting point was 116 to 118 °C.
O=C1NC(=O)C(CCCC#Cc2ccc(Cl)cc2)(S(=O)(=O)c2cccc3ccccc23)S1 (stereo not drawn) [Example 113, 5-[5-(4-Chlorophenyl)pent-4-ynyl]-5-(naphthalene-1-sulfonyl)-thiazolidine-2,4-dione] showed an IC50 (FPTase [1]) of 50 to 60 nM, an IC50 (FPTase [2]) of 750 to 800 nM and a melting point of 172 to 174 °C.
For O=C1NC(=O)C(CCCC#Cc2cc(Cl)ccc2Cl)(S(=O)(=O)c2ccc(Oc3ccncc3)cc2)S1 (stereo not drawn) [Example 116, 5-[5-(2,5-Dichlorophenyl)pent-4-ynyl]-5-[4-(pyridin-4-yloxy)benzenesulfonyl]thiazolidine-2,4-dione], the IC50 (FPTase [1]) was 5 to 10 nM, the IC50 (FPTase [2]) was 17 to 40 nM and the melting point was 179 to 180 °C (dec.).
For COc1ccc(S(=O)(=O)C2(CCCC#Cc3ccc(Cl)cc3Cl)SC(=O)NC2=O)cc1 (stereo not drawn) [Example 117, 5-[5-(2,4-Dichlorophenyl)pent-4-ynyl]-5-(4-methoxybenzenesulfonyl)-thiazolidine-2,4-dione], the IC50 (FPTase [1]) was 20 to 30 nM, the IC50 (FPTase [2]) was 510 to 1000 nM and the melting point was 129 to 133 °C.
In the case of COc1ccc(S(=O)(=O)C2(CCCC#Cc3cccc([N+](=O)[O-])c3)SC(=O)NC2=O)cc1 (stereo not drawn) [Example 118, 5-(4-Methoxybenzenesulfonyl)-5-[5-(3-nitrophenyl)pent-4-ynyl]thiazolidine-2,4-dione], the IC50 (FPTase [1]) is reported as 70 nM, the IC50 (FPTase [2]) is reported as 1900 nM and the melting point is reported as 126 to 130 °C.
In the case of O=C1NC(=O)C(CCCC#Cc2cccc([N+](=O)[O-])c2)(S(=O)(=O)c2ccc(Oc3ccccc3)cc2)S1 (stereo not drawn) [Example 119, 5-[5-(3-Nitrophenyl)pent-4-ynyl]-5-(4-phenoxybenzenesulfonyl)thiazolidine-2,4-dione], the IC50 (FPTase [1]) is reported as 130 to 140 nM, the IC50 (FPTase [2]) is reported as 1300 to 1700 nM and the melting point is reported as 190 to 191 °C.
Work on O=C1NC(=O)C(CCCC#Cc2ccc([N+](=O)[O-])cc2)(S(=O)(=O)c2ccc(I)cc2)S1 (stereo not drawn) [Example 120, 5-(4-Iodobenzenesulfonyl)-5-[5-(4-nitrophenyl)pent-4-ynyl]thiazolidine-2,4-dione] yielded an IC50 (FPTase [1]) of 18 to 32 nM, an IC50 (FPTase [2]) of 530 to 1000 nM and a melting point of 205 to 207 °C.
In the case of COc1ccc(S(=O)(=O)C2(CCCC#Cc3ccc([N+](=O)[O-])cc3)SC(=O)NC2=O)cc1 (stereo not drawn) [Example 121, 5-(4-Methoxybenzenesulfonyl)-5-[5-(4-nitrophenyl)pent-4-ynyl]thiazolidine-2,4-dione], the IC50 (FPTase [1]) is reported as 120 nM, the IC50 (FPTase [2]) is reported as 1600 nM and the melting point is reported as 156 to 158 °C.
In the case of Cc1ccc([N+](=O)[O-])cc1C#CCCCC1(S(=O)(=O)c2ccc(Oc3ccccc3)cc2)SC(=O)NC1=O (stereo not drawn) [Example 124], the IC50 (FPTase [1]) is reported as 52 to 80 nM, the IC50 (FPTase [2]) is reported as 910 to 1300 nM and the melting point is reported as 203 to 204 °C.
In the case of Cc1ccc([N+](=O)[O-])cc1C#CCCCC1(S(=O)(=O)c2ccc(I)cc2)SC(=O)NC1=O (stereo not drawn) [Example 125, 5-(4-Iodobenzenesulfonyl)-5-[5-(2-methyl-5-nitrophenyl)pent-4-ynyl]-thiazolidine-2,4-dione], the IC50 (FPTase [1]) is reported as 30 nM, the IC50 (FPTase [2]) is reported as 400 nM and the melting point is reported as 188 to 190 °C.
Work on Cc1ccc([N+](=O)[O-])cc1C#CCCCC1(S(=O)(=O)c2cccc3ccccc23)SC(=O)NC1=O (stereo not drawn) [Example 126, 5-[5-(2-Methyl-5-nitrophenyl)-pent-4-ynyl]-5-(naphthalene-1-sulfonyl)-thiazolidine-2,4-dione] yielded an IC50 (FPTase [1]) of 90 nM, an IC50 (FPTase [2]) of 1700 nM and a melting point of 168 to 172 °C.
For Cc1ccc([N+](=O)[O-])cc1C#CCCCC1(S(=O)(=O)c2ccc3ccccc3c2)SC(=O)NC1=O (stereo not drawn) [Example 127, 5-[5-(2-Methyl-5-nitrophenyl)pent-4-ynyl]-5-(naphthalene-2-sulfonyl)-thiazolidine-2,4-dione], the IC50 (FPTase [1]) was 120 to 140 nM, the IC50 (FPTase [2]) was 1300 to 1500 nM and the melting point was 197 to 200 °C.
With Cc1cc([N+](=O)[O-])ccc1C#CCCCC1(S(=O)(=O)c2ccc(Oc3ccccc3)cc2)SC(=O)NC1=O (stereo not drawn) [Example 129, 5-[5-(2-Methyl-4-nitrophenyl)pent-4-ynyl]-5-(4-phenoxybenzenesulfonyl)-thiazolidine-2,4-dione] the IC50 (FPTase [1]) was 100 nM, the IC50 (FPTase [2]) was 600 to 790 nM and the melting point was 210 to 212 °C.
Cc1ccc(C)c(C#CCCCC2(S(=O)(=O)c3ccc(I)cc3)SC(=O)NC2=O)c1 (stereo not drawn) [Example 134, 5-[5-(2,5-Dimethylphenyl)pent-4-ynyl]-5-(4-iodobenzenesulfonyl)-thiazolidine-2,4-dione] gave an IC50 (FPTase [1]) of 14 to 850 nM, an IC50 (FPTase [2]) of 430 to 680 nM and a melting point of 129 to 130 °C.
